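Growth conditions: 96-well plates. Treatment: test compound, 48 hours, 5 concentrations. Analysis: linear interpolation between bracketing concentrations; unreached endpoints set to highest concentration. Abbreviation: GI50, concentration required for 50% inhibition of growth. TGI marks complete inhibition of growth.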
Legend:
Assay in all cases: DTP human tumour cell line panel, 48 h
DMS 114 small cell lung = test system: DMS 114 small cell lung
DMS 273 small cell lung = test system: DMS 273 small cell lung
K-562 leukemia = test system: K-562 leukemia
M19-MEL melanoma = test system: M19-MEL melanoma
MALME-3M melanoma = test system: MALME-3M melanoma
NCI-H460 lung = test system: NCI-H460 lung
OVCAR-8 ovarian = test system: OVCAR-8 ovarian
SF-268 CNS = test system: SF-268 CNS
UACC-62 melanoma = test system: UACC-62 melanoma
XF 498 CNS = test system: XF 498 CNS
MDA-MB-231 breast = test system: MDA-MB-231 breast
NCI-H522 lung = test system: NCI-H522 lung

Row | SMILES | TGI (DMS 114 small cell lung) [µM] | TGI (DMS 273 small cell lung) [µM] | TGI (K-562 leukemia) [µM] | TGI (M19-MEL melanoma) [µM] | TGI (MALME-3M melanoma) [µM] | TGI (NCI-H460 lung) [µM] | TGI (OVCAR-8 ovarian) [µM] | TGI (SF-268 CNS) [µM] | TGI (UACC-62 melanoma) [µM] | TGI (XF 498 CNS) [µM] | TGI (MDA-MB-231 breast) [µM] | TGI (NCI-H522 lung) [µM] | GI50 (K-562 leukemia) [µM] | GI50 (MALME-3M melanoma) [µM] | GI50 (MDA-MB-231 breast) [µM] | GI50 (NCI-H460 lung) [µM] | GI50 (NCI-H522 lung) [µM] | GI50 (OVCAR-8 ovarian) [µM] | GI50 (SF-268 CNS) [µM] | GI50 (UACC-62 melanoma) [µM]
1 | O=[N+]([O-])c1ccccc1S(=O)(=O)c1ccccc1 | > 100 | > 100 | > 100 | > 100 | > 100 | > 100 | > 100 | > 100 | > 100 | > 100 | – | – | – | – | – | – | – | – | – | –
2 | CCO[C@@]1(COCc2ccccc2)OC(=O)C[C@@H]1N1C(=O)OC[C@@H]1c1ccccc1 | – | – | > 100 | – | > 100 | > 100 | > 100 | > 100 | > 100 | – | > 100 | > 100 | – | – | – | – | – | – | – | –
3 | C/C(=C\c1ccccc1)C(=O)NCc1ccc(C(=O)NCCc2ccccc2)cc1 | – | – | > 100 | – | > 100 | > 100 | 14.7 | > 39.5 | > 100 | – | > 100 | > 100 | – | – | – | – | – | – | – | –
4 | COP(=O)(OC)C(NC(=O)C(F)(F)F)(c1ccccc1)C(F)(F)F (centres undefined) | > 100 | > 100 | > 100 | > 100 | > 100 | > 100 | > 100 | > 100 | > 100 | > 100 | – | > 100 | – | – | – | – | – | – | – | –
5 | CC1(C)O[C@@H](CCl)C[C@H](C#N)O1 | > 100 | > 100 | > 100 | > 100 | > 100 | > 100 | > 100 | > 100 | > 100 | > 100 | – | > 100 | – | – | – | – | – | – | – | –
6 | CCCC(C)n1c(C)nc2c1C(=O)c1ccccc1C2=O (centres undefined) | – | 30.8 | > 100 | 29.1 | 67 | 16.8 | > 100 | > 100 | 23.8 | 50.1 | – | 97 | – | – | – | – | – | – | – | –
7 | CCN(CC)C(=S)Nc1ccc(-c2cc3ccc(O)cc3oc2=O)cc1 | – | – | > 100 | – | 69.2 | > 100 | > 100 | > 100 | > 100 | – | > 100 | 43.7 | – | – | – | – | – | – | – | –
8 | C(=N\Nc1ccc(-c2nc3ccccc3[nH]2)cc1)/c1c(-c2ccc(Cc3ccccc3)cc2)[nH]c2ccccc12 | – | – | > 100 | – | 23.2 | > 100 | > 54.7 | 10 | > 54.3 | – | 60.6 | 31.9 | – | – | – | – | – | – | – | –
9 | O=[N+]([O-])c1ccc(N/N=C/CC(O)(C(F)(F)F)C(F)(F)F)c([N+](=O)[O-])c1 | – | – | > 10 | – | > 10 | 8.35 | > 10 | > 10 | > 10 | – | > 10 | > 10 | – | – | – | – | – | – | – | –
10 | C=C1C(=O)O[C@H]2[C@H]3O[C@@H](C[C@@H]12)[C@@]1(C)CC[C@H](O1)[C@H](C)CCC[C@H]3C | – | – | 3.59 | – | 3.24 | 3.7 | 2.82 | 3.34 | 6.32 | – | 3.12 | 2.84 | – | – | – | – | – | – | – | –
11 | Fc1ccc(N=C/C=C/Nc2ccc(F)cc2)cc1 | – | – | 22.1 | – | 30.6 | 24.7 | 25.9 | 27.5 | 16.8 | – | 30.1 | 27.6 | – | – | – | – | – | – | – | –
12 | Cc1c(-c2ccccc2)nn2cc(-c3ccccc3)nnc12 | – | – | > 100 | – | 39.6 | 51.2 | > 100 | > 100 | 92.3 | – | 62.9 | 55 | – | – | – | – | – | – | – | –
13 | O=C1C=C2SC3C[C@@]24CC1[N+]1=c2c4c(c(O)c4c2=C(C=N4)CC1)N3 | 2.85 | 4.12 | 8.26 | 3.44 | 3.3 | 9.03 | 4.21 | 2.9 | 3.23 | 3.34 | – | 2.99 | – | – | – | – | – | – | – | –
14 | Nc1ccccc1.[C-]#[O+].[C-]#[O+].[C-]#[O+].[C-]#[O+].[C-]#[O+].[Cr] | – | – | > 10 | – | > 10 | > 10 | > 10 | > 10 | 9.64 | – | > 10 | > 10 | 2.98 | 4.72 | 5.79 | 5.64 | 2.94 | 4.03 | 6.56 | 2.42
15 | CSc1c(C#N)c(N)nc2c(N=Nc3ccc(Br)cc3)c(N)nn12 | – | – | 21.4 | – | 24 | > 49.1 | 23.4 | 13.2 | 19.4 | – | 15.9 | 12 | – | – | – | – | – | – | – | –
16 | CC1=NN(C(=O)CC(=O)Nc2ccccc2Cl)C(=O)C1N=Nc1ccc(S(=O)(=O)c2ccc(N=NC3C(=O)N(C(=O)CC(=O)Nc4ccccc4Cl)N=C3C)cc2)cc1 (centres undefined) | – | – | > 100 | – | > 100 | > 100 | > 100 | > 100 | > 100 | – | > 100 | > 100 | – | – | – | – | – | – | – | –
17 | COC(=O)C1=C(OC(=O)/C=C/c2ccccc2)C(C(=O)OC)[C@@]2(O)[C@@H](C(=O)OC)[C@H](C)C[C@@H]1[C@@H]2C(=O)OC (some centres undefined) | – | – | > 100 | – | 65.5 | 52.7 | 46.2 | 92 | 33.1 | – | 43.9 | 21 | – | – | – | – | – | – | – | –
18 | Cc1cn(CCCCCCC2=NCCCN2)c(=O)[nH]c1=O | – | – | > 100 | – | > 100 | > 100 | > 100 | > 100 | > 100 | – | > 100 | > 100 | – | – | – | – | – | – | – | –
19 | C=CC(OC(C)=O)c1ccc(OC(=O)C(C)C)c(OC)c1 (centres undefined) | – | – | 11.6 | – | 4.43 | > 57.6 | 11.1 | 38.9 | 31.5 | – | 18.4 | 3.01 | – | – | – | – | – | – | – | –
20 | O=S(OC12CC3CC(CC(C3)C1)C2)c1cc(Cl)cc(Cl)c1OCc1ccccc1 (centres undefined) | > 100 | – | > 100 | > 100 | > 100 | > 100 | – | > 100 | > 100 | > 100 | – | 37.1 | – | – | – | – | – | – | – | –
21 | CC12CC3OC(=O)C1COC14OC5(C2C1=O)C(O)(CCC1C4CC2OC24CC=CC(=O)C14C)C(=O)OC35C (centres undefined) | – | – | > 100 | – | 52.8 | > 100 | > 100 | > 100 | 27.6 | – | 37 | 19.8 | – | – | – | – | – | – | – | –
22 | CC(=O)OC(Cc1ccc2ccccc2n1)(C(F)(F)F)C(F)(F)F | – | – | > 100 | – | 5.21 | 18.5 | 3.96 | 7.54 | 2.93 | – | 4.12 | 2.16 | – | – | – | – | – | – | – | –
23 | CSc1cc(-c2ccccn2)nc(-c2ccccn2)c1 | – | – | > 100 | – | 9.18 | 1.88 | 12.5 | > 35.2 | 1.23 | – | 18.1 | 9.74 | – | – | – | – | – | – | – | –
24 | CCOC(=O)c1c(Br)c(-c2ccc(OC)cc2)c(Br)n1C | – | – | 38.3 | – | 44.4 | > 100 | > 100 | > 100 | 47.6 | – | > 100 | 83.9 | 4.04 | 9.99 | – | – | – | – | – | 13
25 | COc1cc(O)c2c(=O)c3c(C)cccc3n(C)c2c1 | – | – | > 10 | – | > 10 | > 10 | > 10 | > 10 | > 10 | – | > 10 | > 10 | – | – | – | – | – | – | – | –
26 | CCOC(=O)c1cc(I)c(-c2cc(C)no2)n1C | – | – | > 100 | – | > 100 | > 100 | > 100 | > 100 | > 100 | – | > 100 | > 100 | – | – | – | – | – | – | – | –
27 | O=C1Nc2ccccc2Cn2c1cc1oc(-c3ccccc3)cc12 | – | – | > 100 | – | > 100 | > 100 | > 100 | 72.3 | > 100 | – | 87.2 | > 100 | – | – | – | – | – | – | – | –
28 | COC12CCCN1c1ccn(Cc3ccccc3)c(=O)c1C2=O (centres undefined) | – | – | > 100 | – | > 100 | > 100 | > 100 | > 100 | > 100 | – | > 100 | > 100 | – | – | – | – | – | – | – | –
29 | O=C1c2ccccc2C(=O)c2c(O)c(NCCCNCCO)cc(O)c21 | 26.2 | 22.7 | 3.5 | 27.4 | 31.2 | 17.8 | 23.7 | 23.1 | 36.5 | 32.7 | – | – | – | – | – | – | – | – | – | –

Source: PubChem BioAssay (NCI)
